# Measured values from publication PMC8760230, “Translational Development of a Zr-89-Labeled Inhibitor of Prostate-specific Membrane Antigen for PET Imaging in Prostate Cancer” (Molecular Imaging and Biology, 2021).
# Read-outs that look alike come from different tables or passages of the source.
# Columns and labels:
# PSMA = molecular target: T1, PSMA (Homo sapiens, UniProt Q04609); assay: Equilibrium dissociation constant Kd / Bmax, saturation binding on PSMA-positive LNCaP cells; settings: for Kd: 3 h incubation, 0.25-75 nM, nonspecific binding with 2-PMPA; for Bmax (maximum achievable concentration on 10^6 tumor cells): Scatchard plots
# T1 construct: host or cells: LNCaP cells
# T1 sequence (Q04609 whole entry): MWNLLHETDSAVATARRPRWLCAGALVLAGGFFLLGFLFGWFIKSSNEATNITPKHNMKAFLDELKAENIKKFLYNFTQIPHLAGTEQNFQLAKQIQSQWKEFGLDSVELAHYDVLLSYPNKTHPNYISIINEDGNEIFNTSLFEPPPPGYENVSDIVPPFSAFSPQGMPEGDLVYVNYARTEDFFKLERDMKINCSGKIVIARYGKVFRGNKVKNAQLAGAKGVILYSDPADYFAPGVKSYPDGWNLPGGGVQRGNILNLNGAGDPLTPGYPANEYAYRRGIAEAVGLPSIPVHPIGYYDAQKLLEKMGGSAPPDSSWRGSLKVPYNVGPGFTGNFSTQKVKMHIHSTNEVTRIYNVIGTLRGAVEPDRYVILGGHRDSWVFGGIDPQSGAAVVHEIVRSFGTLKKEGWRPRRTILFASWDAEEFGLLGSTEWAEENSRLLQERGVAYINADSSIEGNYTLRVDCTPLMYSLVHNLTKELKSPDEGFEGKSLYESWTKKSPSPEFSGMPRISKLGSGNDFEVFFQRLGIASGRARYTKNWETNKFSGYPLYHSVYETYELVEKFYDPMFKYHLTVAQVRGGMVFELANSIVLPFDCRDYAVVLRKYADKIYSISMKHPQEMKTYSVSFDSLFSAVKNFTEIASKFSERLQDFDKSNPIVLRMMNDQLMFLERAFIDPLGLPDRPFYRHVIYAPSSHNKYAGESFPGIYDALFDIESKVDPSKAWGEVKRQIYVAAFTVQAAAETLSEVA
# Protocol: The equilibrium dissociation constant describing the interaction of the radiolabeled ligands with the PSMA binding sites was determined in PSMA-positive LNCaP cell lines (Cell Line Service, Eppelheim, Germany). LNCaP cells were seeded at a density of 10^6 cells/well on a 6-well plate (Corning, ME, USA) and incubated under 5% CO2 at 37 °C for 48 h with medium (minimum essential medium Eagle supplemented with 2 mM L-glutamine, 0.1 mM non-essential amino acids (NEAA), 1.0 mM sodium pyruvate, 10% fetal bovine serum, 100 U/ml penicillin, and 100 µg/ml streptomycin) (Lonza, Verviers, Belgium) in a humidified incubator (Thermo Heracell 150 CO2-Incubator, MA, USA). To determine the nonspecific binding, the medium was removed from selected wells, and 1 ml of a solution of 0.1 mM of 2-(phosphonomethyl)-pentanedioic acid (2-PMPA) in fresh medium was added. […] The plates were then incubated under 5% CO2, at 37 °C for 1 h. After that, the medium was removed and the cells incubated under the same incubation conditions for 3 h with different concentrations (0.25 nM, 2.5 nM, 5 nM, 10 nM, 25 nM, 50 nM, and 75 nM) of the radiotracer under investigation in 1 ml fresh medium.
# After 3 h, the cells were washed three times with 1 ml PBS, and the cells were finally lysed by adding 1 ml of 1 M NaOH and incubating them for 10 min at room temperature. All samples were measured with a gamma counter (Nuklear Medizintechnik Dresden Isomed 100, Dresden, Germany) and were decay-corrected. The equilibrium dissociation constant (Kd) and the maximum density of receptors (Bmax) were calculated by non-linear regression using GraphPad Prism 8.0.2 (GraphPad Software, San Diego, USA).
# LNCaP cells [1] = assay: Cellular uptake (specific cell binding) in LNCaP cells; type: cell-based; settings: n=3
# Protocol: (§1) The cell binding determined in these experiments is the sum of specific and nonspecific cell binding. To determine the values for nonspecific cell binding and internalization, all experiments were additionally performed in the presence of 2-PMPA.
# (§2) The plates were incubated for 1 h; after which, 0.75 pmol of the radiotracer to be examined was added to 1 ml of fresh medium. The cells were incubated for 30 min, 1, 2, 3, and 5 h. At each time point, the supernatant was removed and the cells washed with 1 ml of PBS. To dissociate the receptor-bound radioligand, the cells were washed twice with 1 ml of a 0.1 M glycine buffer solution at pH 2.8 for 5 min. The 0.1 M glycine–HCl buffer dissociated all the surface-bound complexes. The cells were then washed with 1 ml of PBS, and the internalized fraction was determined by solubilizing the cells with 1 ml of 1 M NaOH and incubating them for 10 min at room temperature. The radioactivity collected from the culture medium, 0.1 M glycine (surface-bound), and 1 M NaOH (internalized fraction) was measured in a gamma counter and decay-corrected. Cell binding was calculated from the surface-bound (0.1 M glycine) and the internalized fraction (1 M NaOH). The internalized fraction was expressed as a percentage of cell binding (internalization to cell-bound radioactivity ratio). All cell uptake experiments were run in triplicate.
# LNCaP cells [2] = assay: Internalization in LNCaP cells; type: cell-based; settings: n=3
# Protocol: as §1, §2
# prostate cancer relapse = assay: First-in-human PET/CT scan in a patient with biochemical recurrence of prostate cancer; settings: 2 h p.i., 343 MBq
# Protocol: The patient had given their written informed consent for PET imaging and the scientific evaluation of their data. All procedures were performed in accordance with the Institutional Review Board and the regulations of the regional authorities in Cologne. The kidney dose was estimated on the basis of two PET scans. The following assumptions were made for the estimation: Between time 0 (injection) and the first measuring point, the time-activity-curve follows a constant progression. All measuring points were integrated numerically using trapezoidal approximation. From the last measuring point to infinity, a mono-exponential function was fitted and integrated. As the effective half-life could not be accurately determined from two measurement points, the physical half-life of Zr-89 was used instead.
# LNCaP tumor xenografts = settings: for Tumor/blood ratio / Tumor/kidneys ratio / Tumor/liver ratio / Tumor/muscle ratio: LNCaP xenograft mice; for Biodistribution Blood / Biodistribution Bone / Biodistribution Heart / Biodistribution Intestine / Biodistribution Kidneys / Biodistribution LNCAP-tumor / Biodistribution Lung / Biodistribution Muscle / Biodistribution Prostate / Biodistribution Spleen / Biodistribution Thyroid / Biodistribution Liver: i.v. 30 pmol, n=5
smiles,measurement,setting,value
COc1nc([18F])ccc1C(=O)NCCCCC(NC(=O)NC(CCC(=O)O)C(=O)O)C(=O)O (stereo not drawn) [[^18F]F-JK-PSMA-7],Kd,PSMA,5.07 ± 0.45 nM
same,Bmax (maximum achievable concentration on 10^6 tumor cells),PSMA,2702 ± 61 fmol/10^6 cells
same,Specific binding in LNCaP cells as percentage of total activity,LNCaP cells [1]; 0.5 h,23.8±0.6 %
same,Specific binding in LNCaP cells as percentage of total activity,LNCaP cells [1]; 1 h,32.6±0.4 %
same,Specific binding in LNCaP cells as percentage of total activity,LNCaP cells [1]; 2 h,38.8±1.3 %
same,Specific binding in LNCaP cells as percentage of total activity,LNCaP cells [1]; 3 h,45.2±1.9 %
same,Specific binding in LNCaP cells as percentage of total activity,LNCaP cells [1]; 5 h,45.8±0.4 %
same,Specific internalized activity as percentage of specific cell-bound activity,LNCaP cells [2]; 0.5 h,19.6±1.3 %
same,Specific internalized activity as percentage of specific cell-bound activity,LNCaP cells [2]; 1 h,33.9±1.6 %
same,Specific internalized activity as percentage of specific cell-bound activity,LNCaP cells [2]; 2 h,44.3±2.5%
same,Specific internalized activity as percentage of specific cell-bound activity,LNCaP cells [2]; 3 h,46.0±2.2%
same,Specific internalized activity as percentage of specific cell-bound activity,LNCaP cells [2]; 5 h,48.6±0.9 %
same,SUVmax left prostate lobe,prostate cancer relapse,4.63
same,SUVmax right prostate lobe,prostate cancer relapse,5.37
same,Tumor/blood ratio,LNCaP tumor xenografts; 2 h p.i.,142 ± 24
same,Tumor/kidneys ratio,LNCaP tumor xenografts; 2 h p.i.,0.74 ± 0.08
same,Tumor/liver ratio,LNCaP tumor xenografts; 2 h p.i.,4.7 ± 1.2
same,Tumor/muscle ratio,LNCaP tumor xenografts; 2 h p.i.,282 ± 71
same,Biodistribution Blood,LNCaP tumor xenografts; 2 h p.i.,0.15 ± 0.04 %ID/g
same,Biodistribution Bone,LNCaP tumor xenografts; 2 h p.i.,0.18 ± 0.03 %ID/g
same,Biodistribution Heart,LNCaP tumor xenografts; 2 h p.i.,0.12 ± 0.02 %ID/g
same,Biodistribution Intestine,LNCaP tumor xenografts; 2 h p.i.,0.89 ± 0.18 %ID/g
same,Biodistribution Kidneys,LNCaP tumor xenografts; 2 h p.i.,27.2 ± 2.6 %ID/g
same,Biodistribution LNCAP-tumor,LNCaP tumor xenografts; 2 h p.i.,20.2 ± 2.4 %ID/g
same,Biodistribution Lung,LNCaP tumor xenografts; 2 h p.i.,0.18 ± 0.01 %ID/g
same,Biodistribution Muscle,LNCaP tumor xenografts; 2 h p.i.,0.07 ± 0.02 %ID/g
same,Biodistribution Prostate,LNCaP tumor xenografts; 2 h p.i.,0.22 ± 0.03 %ID/g
same,Biodistribution Spleen,LNCaP tumor xenografts; 2 h p.i.,2.15 ± 0.45 %ID/g
same,Biodistribution Thyroid,LNCaP tumor xenografts; 2 h p.i.,0.19 ± 0.02 %ID/g
same,Tumor/liver ratio,LNCaP tumor xenografts; 4 h p.i.,5.7 ± 0.7
same,Biodistribution Blood,LNCaP tumor xenografts; 4 h p.i.,0.12 ± 0.03 %ID/g
same,Biodistribution Bone,LNCaP tumor xenografts; 4 h p.i.,0.20 ± 0.03 %ID/g
same,Biodistribution Heart,LNCaP tumor xenografts; 4 h p.i.,0.10 ± 0.02 %ID/g
same,Biodistribution Intestine,LNCaP tumor xenografts; 4 h p.i.,1.53 ± 0.31 %ID/g
same,Biodistribution Kidneys,LNCaP tumor xenografts; 4 h p.i.,26.0 ± 3.5 %ID/g
same,Biodistribution LNCAP-tumor,LNCaP tumor xenografts; 4 h p.i.,21.3 ± 1.5 %ID/g
same,Biodistribution Liver,LNCaP tumor xenografts; 4 h p.i.,3.75 ± 0.50 %ID/g
same,Biodistribution Lung,LNCaP tumor xenografts; 4 h p.i.,0.18 ± 0.04 %ID/g
same,Biodistribution Muscle,LNCaP tumor xenografts; 4 h p.i.,0.19 ± 0.03 %ID/g
same,Biodistribution Prostate,LNCaP tumor xenografts; 4 h p.i.,0.60 ± 0.16 %ID/g
same,Biodistribution Spleen,LNCaP tumor xenografts; 4 h p.i.,1.57 ± 0.22 %ID/g
same,Biodistribution Thyroid,LNCaP tumor xenografts; 4 h p.i.,0.20 ± 0.02 %ID/g
O=C([O-])CN(CCN(CC(=O)[O-])Cc1cc(CCC(=O)NCCCCCC(=O)NCCCC[C@H](NC(=O)N[C@@H](CCC(=O)O)C(=O)O)C(=O)O)ccc1[O-])Cc1cc(CCC(=O)O)ccc1[O-].[68Ga+3].[OH3+] [[^68Ga]Ga-PSMA-11],Kd,PSMA,5.15 ± 0.6 nM
same,Bmax (maximum achievable concentration on 10^6 tumor cells),PSMA,1746 ± 53 fmol/10^6 cells
same,Specific binding in LNCaP cells as percentage of total activity,LNCaP cells [1]; 0.5 h,27.7±0.7%
same,Specific binding in LNCaP cells as percentage of total activity,LNCaP cells [1]; 1 h,35.3±3.1 %
same,Specific binding in LNCaP cells as percentage of total activity,LNCaP cells [1]; 2 h,42.0±1.2 %
same,Specific binding in LNCaP cells as percentage of total activity,LNCaP cells [1]; 3 h,46.3±2.1%
same,Specific binding in LNCaP cells as percentage of total activity,LNCaP cells [1]; 5 h,48.3±1.2%
same,Specific internalized activity as percentage of specific cell-bound activity,LNCaP cells [2]; 0.5 h,28.9±0.7%
same,Specific internalized activity as percentage of specific cell-bound activity,LNCaP cells [2]; 1 h,39.7±2.0%
same,Specific internalized activity as percentage of specific cell-bound activity,LNCaP cells [2]; 2 h,48.3±2.5%
same,Specific internalized activity as percentage of specific cell-bound activity,LNCaP cells [2]; 3 h,50.5±3.4%
same,Specific internalized activity as percentage of specific cell-bound activity,LNCaP cells [2]; 5 h,56.8±2.2 %
same,Tumor/blood ratio,LNCaP tumor xenografts; 2 h p.i.,15 ± 3
same,Tumor/kidneys ratio,LNCaP tumor xenografts; 2 h p.i.,0.09 ± 0.02
same,Tumor/liver ratio,LNCaP tumor xenografts; 2 h p.i.,6.2 ± 1.0
same,Tumor/muscle ratio,LNCaP tumor xenografts; 2 h p.i.,37 ± 8
same,Biodistribution Blood,LNCaP tumor xenografts; 2 h p.i.,1.34 ± 0.20 %ID/g
same,Biodistribution Bone,LNCaP tumor xenografts; 2 h p.i.,1.19 ± 0.31 %ID/g
same,Biodistribution Heart,LNCaP tumor xenografts; 2 h p.i.,1.10 ± 0.36 %ID/g
same,Biodistribution Intestine,LNCaP tumor xenografts; 2 h p.i.,1.50 ± 0.59 %ID/g
same,Biodistribution Kidneys,LNCaP tumor xenografts; 2 h p.i.,231 ± 41 %ID/g
same,Biodistribution LNCAP-tumor,LNCaP tumor xenografts; 2 h p.i.,19.4 ± 2.4 %ID/g
same,Biodistribution Liver,LNCaP tumor xenografts; 2 h p.i.,3.17 ± 0.18 %ID/g
same,Biodistribution Lung,LNCaP tumor xenografts; 2 h p.i.,3.27 ± 1.03 %ID/g
same,Biodistribution Muscle,LNCaP tumor xenografts; 2 h p.i.,0.54 ± 0.15 %ID/g
same,Biodistribution Prostate,LNCaP tumor xenografts; 2 h p.i.,4.09 ± 1.15 %ID/g
same,Biodistribution Spleen,LNCaP tumor xenografts; 2 h p.i.,40.9 ± 9.3 %ID/g
same,Biodistribution Thyroid,LNCaP tumor xenografts; 2 h p.i.,2.13 ± 0.27 %ID/g
same,Tumor/kidneys ratio,LNCaP tumor xenografts; 4 h p.i.,0.10 ± 0.05
same,Tumor/liver ratio,LNCaP tumor xenografts; 4 h p.i.,34.6 ± 6.6
same,Biodistribution Blood,LNCaP tumor xenografts; 4 h p.i.,0.21 ± 0.03 %ID/g
same,Biodistribution Bone,LNCaP tumor xenografts; 4 h p.i.,0.50 ± 0.19 %ID/g
same,Biodistribution Heart,LNCaP tumor xenografts; 4 h p.i.,1.35 ± 0.70 %ID/g
same,Biodistribution Intestine,LNCaP tumor xenografts; 4 h p.i.,0.65 ± 0.30 %ID/g
same,Biodistribution Kidneys,LNCaP tumor xenografts; 4 h p.i.,226 ± 25 %ID/g
same,Biodistribution LNCAP-tumor,LNCaP tumor xenografts; 4 h p.i.,23.2 ± 10.6 %ID/g
same,Biodistribution Liver,LNCaP tumor xenografts; 4 h p.i.,0.65 ± 0.21 %ID/g
same,Biodistribution Lung,LNCaP tumor xenografts; 4 h p.i.,1.23 ± 0.13 %ID/g
same,Biodistribution Muscle,LNCaP tumor xenografts; 4 h p.i.,0.42 ± 0.11 %ID/g
same,Biodistribution Prostate,LNCaP tumor xenografts; 4 h p.i.,1.67 ± 0.37 %ID/g
same,Biodistribution Spleen,LNCaP tumor xenografts; 4 h p.i.,62.5 ± 21.5 %ID/g
same,Biodistribution Thyroid,LNCaP tumor xenografts; 4 h p.i.,4.44 ± 2.9 %ID/g
